Counter-ions that a name gives are not always drawn. Like-named read-outs stand apart in the source and are kept apart here.
Legend:
Type in all cases: cell-based
[1] = tested on: MEL28; assay: Cytotoxicity of spisulosine analogs, MEL28 (after Berjeron et al); settings: methodology after Berjeron et al, NA=not active, read-out: Cytotoxicity IC50 MEL28
[2] = tested on: DU145; assay: Cytotoxicity of spisulosine analogs, DU145 (after Berjeron et al); settings: methodology after Berjeron et al, NA=not active, read-out: Cytotoxicity IC50 DU145
[3] = tested on: P388; assay: Cytotoxicity of spisulosine analogs, P388 (after Berjeron et al); settings: methodology after Berjeron et al, NA=not active, read-out: Cytotoxicity IC50 P388
[4] = tested on: A549; assay: Cytotoxicity of spisulosine analogs, A549 (after Berjeron et al); settings: methodology after Berjeron et al, NA=not active, read-out: Cytotoxicity IC50 A549
[5] = tested on: HT29; assay: Cytotoxicity of spisulosine analogs, HT29 (after Berjeron et al); settings: methodology after Berjeron et al, NA=not active, read-out: Cytotoxicity IC50 HT29
[6] = tested on: 5637; assay: Cytotoxicity MTS, solid tumors, Bladder 5637; settings: 4-Parameter Curve Fit, NA = not active
[7] = tested on: FADU; assay: Cytotoxicity MTS, solid tumors, Pharynx FADU; settings: 4-Parameter Curve Fit, NA = not active
[8] = tested on: A549; assay: Cytotoxicity MTS, solid tumors, NSCL A549; settings: 4-Parameter Curve Fit, NA = not active
[9] = tested on: Y-79; assay: Cytotoxicity MTS, solid tumors, Retinoblastoma Y-79; settings: 4-Parameter Curve Fit, NA = not active
[10] = tested on: NCI-H187; assay: Cytotoxicity MTS, solid tumors, SCL NCI-H187; settings: 4-Parameter Curve Fit, NA = not active
[11] = tested on: 786-O; assay: Cytotoxicity MTS, solid tumors, Renal 786-O; settings: 4-Parameter Curve Fit, NA = not active
[12] = tested on: MX-1; assay: Cytotoxicity MTS, solid tumors, Breast MX-1; settings: 4-Parameter Curve Fit, NA = not active
[13] = tested on: Molt 3; assay: Cytotoxicity MTS, leukemias/lymphomas, Molt 3; settings: 4-Parameter Curve Fit, NA = not active, read-out: Cytotoxicity IC50 ALL (Acute lymphobalstic) Molt 3

| SMILES | IC50 ([1]; MEL28) | IC50 ([4]; A549) | IC50 ([5]; HT29) | IC50 ([2]; DU145) | IC50 ([3]; P388) | other results |
| --- | --- | --- | --- | --- | --- | --- |
| CCCCCCCCCCCCCCC[C@@H](O)[C@H](C)N [drawing 46, Bis-((2S,3R)-2-ammonium-3-octadecanol) L-tartrate] | 27.7 nM | – | – | – | – | IC50 ([2]; Homo sapiens, DU-145, DU145): 27.7 nM; IC50 ([3]; Mus musculus, P388, P388): 27.7 nM; IC50 ([4]; Homo sapiens, A549, A549): 27.7 nM; IC50 ([5]; Homo sapiens, HT-29, HT29): 27.7 nM |
| CCCCCCCCCCCCCCC[C@@H](O)[C@H](C)N [drawing 47, (2S,3R)-2-Amino-3-octadecanol hydrochloride] | – | – | – | – | – | IC50 ([1]; MEL28, hydrochloride): 311 nM; IC50 ([2]; DU145, hydrochloride): 31.1 nM; IC50 ([3]; P388, hydrochloride): 31.1 nM; IC50 ([4]; A549, hydrochloride): 31.1 nM; IC50 ([5]; HT29, hydrochloride): 15.5 nM |
| CCCCCCCCCCCCCCCCCC[C@@H](O)[C@H](C)N [drawing 52, (2S,3R)-2-Amino-3-heneicosanol] | – | 305 nM | 305 nM | – | – | IC50 ([1]; Homo sapiens, SK-MEL-28, MEL28): 305 nM; IC50 ([2]; Homo sapiens, DU-145, DU145): 305 nM; IC50 ([3]; Mus musculus, P388, P388): 153 nM |
| CCCCCCCCCCCCCCC[C@@H](O)[C@@H](N)CC [drawing 58, (3S,4R)-3-Amino-4-nonadecanol] | – | 33.4 nM | 33.4 nM | – | – | IC50 ([1]; Homo sapiens, SK-MEL-28, MEL28): 334 nM; IC50 ([2]; Homo sapiens, DU-145, DU145): 33.4 nM; IC50 ([3]; Mus musculus, P388, P388): 33.4 nM |
| CCCCCCCCCCCCCCC[C@@H](O)[C@@H](N)CCCN [drawing 72, (4S,5R)-1,4-Diamino-5-eicosanol dihydrochloride] | – | – | – | – | – | IC50 ([4]; A549, dihydrochloride): 1240 nM; IC50 ([5]; HT29, dihydrochloride): 1240 nM |
| CCCCCCCCCCCCCCCC(O)C(N)CC (centres unmarked) [drawing 79] | 334 nM | 334 nM | 334 nM | 334 nM | 334 nM | – |
| CCCCCCCCCCCCCC[C@@H](O)[C@H](C)N [drawing 101] | 327 nM | 163 nM | 163 nM | 163 nM | 163 nM | – |
| CCCCCCCCCCCCCCCC(=O)[C@H](C)N [drawing 102] | 156 nM | 156 nM | 31.3 nM | 31.3 nM | 31.3 nM | – |
| CCCCCCCCCCCCCCCCC(=O)[C@H](C)N [drawing 104] | 299 nM | 150 nM | 150 nM | 150 nM | 150 nM | – |
| CCCCCCCCCCCCCCCCCC(=O)[C@H](C)N [drawing 105] | 287 nM | 144 nM | 144 nM | 144 nM | 144 nM | – |
| CCCCCCCCCCCCCCCC(=O)[C@@H](N)CC [drawing 106] | 299 nM | 29.9 nM | 29.9 nM | 29.9 nM | 29.9 nM | – |
| CCCCCCCCCCCCCCC[C@@H](O)[C@@H](N)CF [drawing 111] | 329 nM | 32.9 nM | 32.9 nM | 329 nM | 32.9 nM | – |
| CCCCCCCCCCCCCC[C@@H](O)[C@H](C)N [drawing 117] | – | – | – | – | – | IC50 [6]: 3260 nM; IC50 [7]: 19.6 µM; IC50 [8]: 49 µM |
| CCCCCCCCCCCCCCCC(=O)[C@H](C)N [drawing 118] | – | – | – | – | – | IC50 [9]: 12.1 µM; IC50 [10]: 3.55 µM; IC50 [11]: 0.162 µM; IC50 [12]: 2840 nM |
| CCCCCCCCCCCCCCCCCC(=O)[C@H](C)N [drawing 120] | – | – | – | – | – | IC50 [7]: 14.3 µM; IC50 [8]: 20.1 µM |
| CCCCCCCCCCCCCCCC(=O)[C@@H](N)CC [drawing 121] | – | – | – | – | – | IC50 [6]: 1580 nM; IC50 [7]: 2.99 µM; IC50 [11]: 59.8 µM; IC50 [12]: 1720 nM |
| CCCCCCCCCCCCCCC(O)C(C)N (centres unmarked) [drawing 128] | – | – | – | – | – | IC50 [13]: 26.1 µM |
